From US9663561B2, “Methods of treatment of cancer using SRC-modulating peptides” (The University of Toledo, priority 2006, dated 2017)

Columns and labels:
[1] = target: T1, Na+/K+-ATPase/Src complex (Sus scrofa, UniProt P05024); experiment: Src pY418 phosphorylation of the Na+/K+-ATPase/Src complex (Western blot); type: biochemical
T1 construct: Na+/K+-ATPase was purified from pig kidney outer medulla using the Jorgensen method; tissue Upstate Biotechnology (Src only); host or cells: pig kidney outer medulla (Na+/K+-ATPase)
Description: The Src kinase activity was assayed using a commercial kit (Haas et al., 2000). To determine how Na+/K+-ATPase affects Src kinase activity, the purified Src (4.5 U) was incubated with 5 μg of the purified Na+/K+-ATPase in the Src assay buffer for 30 min at room temperature. Afterward, both control Src or the Na+/K+-ATPase-bound Src were exposed to 10 μM ouabain and Src kinase activity was determined. In other experiments, the Src pY418 was measured by anti-pY418 antibody to indicate Src activation (Ma et al., 2000). To do so, the purified Src (4.5 U) was incubated with different amounts of the purified Na+/K+-ATPase or GST-Na+/K+ATPase constructs in phosphate-buffered saline (PBS) for 30 min at 37° C. Afterward, 2 mM ATP/Mg2+ was added. The reaction continued for 5 min at 37° C. and was stopped by addition of SDS sample buffer.
The purified Na+/K+-ATPase was solubilized in 1% Triton X-100 PBS and centrifuged at 100,000×g for 30 min. The supernatant was collected for the binding assay. GST-fusion proteins (5 μg) were conjugated on glutathione beads and incubated with the solubilized Na+/K+-ATPase in 500 μl PBS in the presence of 0.5% Triton X-100 at room temperature for 30 min. The beads were washed with the same buffer for four times. The bound Na+/K+ATPase was resolved on 10% SDS-PAGE and detected by Western blot. Reciprocal binding assay using GST-Na+/K+-ATPase constructs (5 μg) and purified Src lacking of first 85 amino acids (200 ng) or His-tagged Src constructs (100 ng) was done similarly. To test if native Na+/K+-ATPase binds Src, the above experiments were repeated in the absence of Triton X-100. To make the Na+/K+-ATPase/Src complex, 2-5 μg of the purified Na+/K+ATPase was incubated with 4.5 U of Src (˜10 ng) in PBS in the absence of Triton X-100 at room temperature for 30 min. The complex was either used for the experiments directly as indicated or collected by centrifugation at 100,000×g for 30 min.

SYF and SYF+Src cells = experiment: Protein tyrosine phosphorylation in SYF and SYF+Src cells; type: cell-based, mouse; conditions: 100 μM ouabain 5 min
Description: FIG. 9B. Both SYF and SYF+Src cells were treated with 100 μM ouabain for 5 min and analyzed as in A. Representative Western blots of three experiments are shown in both A and B.
Cells were lysed in RIPA buffer containing 1% Nonidet P40, 0.25% sodium deoxycholate, 150 mM NaCl, 1 mM EDTA, 1 mM phenylmethylsulfonyl fluoride, 1 mM sodium orthovanadate, 1 mM NaF, 10 μg/ml aprotinin, 10 μg/mlleupeptin, and 50 mM Tris-HCl (pH 7.4). Cell lysates were cleared by centrifugation at 16,000×g for […], and the supernatants (1 mg) were either immunoprecipitated with anti-α1 antibody or incubated with different GST-fusion proteins. The complexes were then pulled down by either protein G agarose or glutathione beads (Ma et al., 2000; Haas et al., 2002) and analyzed by Western blot.

Na+/K+-ATPase = Na+/K+-ATPase activity assay in cell lysates; type: biochemical, pig; conditions: 10 μM ouabain, PY-17 and P-11 cells
Description: Na+/K+-ATPase enzymatic activity was determined Briefly, cells were collected from the cultures in Tris-EGTA buffer (pH 7.2) and briefly sonicated. The cell lysates were then treated with alamethicin at a concentration of 0.1 mg/mg of protein for 30 min at room temperature. ATPase activity was measured by the determination of the initial release of 32P from [,y-32P]ATP, and the reaction was carried out in a reaction mixture (1 ml) containing 100 mM NaCl, 25 mM KCl, 3 mM MgCl2, 1 mM EGTA, 2 mM ATP, 5 mM NaN3, and 50 mM Tris-HCl (pH 7.4). Na+/K+-ATPase activity was calculated as the difference between the activities measured in the absence of ouabain and in the presence of 1 mM ouabain. To determine the ouabain concentration curve, the alamethicin-treated cell lysates were preincubated with different concentrations of ouabain for 15 min before ATP was added to start the reaction.

Src and ERK1/2 = experiment: Activation of Src and ERK1/2 in P-11, A4-11, PY-17 and AAC-19 cells (Western blot); type: cell-based, pig; conditions: for Src activation (Tyr(P)418-Src): 100 nM ouabain
Description: FIGS. 18A and 18B. Cells were exposed to 100 nM ouabain for either 5 or 15 min, and the cell lysates (50 μg/lane) were analyzed by Western blot for active Src or active ERK1/2. Blots were probed first with anti-Tyr(P)^418-Src or anti-pERK antibody, then stripped, and reprobed for total Src or ERK1/2 to ensure equal loading.
FIGS. 18 C and 18D. Cells were treated with indicated concentrations of ouabain for 5 min, and total cell lysates were analyzed for Tyr(P)^418-Src and total Src or pERK1/2 and total ERK1/2 as in FIGS. 18A and 18B. A representative Western blot and combined quantitative data are shown. The quantitative data (relative ratio of pSrc/Src or pERK/ERK) from three independent experiments (mean±S.E.) were calculated relative to the control condition of P-11 cells. *, p<0.05 versus the respective control condition of each cell line. con, control.
Cells were washed with PBS, solubilized in modified ice-cold radioimmune precipitation assay buffer, and subjected to immunoprecipitation or Western blot analysis. Protein signal was detected using the enhanced chemiluminescence kit and quantified using a Bio-Rad GS-670 imaging densitometer.

Src and ERKs = conditions: cultured cells and animal models; cited from earlier work
[2] = 10 μM ouabain 15 min before centrifugation

C[C@@H]1O[C@@H](O[C@H]2C[C@@H](O)[C@]3(CO)[C@H]4[C@H](O)C[C@]5(C)[C@@H](C6=CC(=O)OC6)CC[C@]5(O)[C@@H]4CC[C@]3(O)C2)[C@H](O)[C@H](O)[C@H]1O [ouabain]
Src pY418 of cosedimented complex [1, 2]: increased the amount of Src pY418
total Src cosedimented with the Na+/K+-ATPase [1, 2]: no effect on total Src cosedimented
Src pY418 of Na+/K+-ATPase/Src complex ([1]; different concentrations of ouabain, 2 mM ATP/Mg2+, 5 min): significantly increased the pY418 in a dose-dependent manner
Src pY418 of Na+/K+-ATPase/Src complex ([1]; ouabain in the presence of vanadate): still able to stimulate pY418 of Src
effects of ouabain on protein tyrosine phosphorylation (SYF and SYF+Src cells; SYF cells): completely abolished
effects of ouabain on protein tyrosine phosphorylation (SYF and SYF+Src cells; SYF+Src cells): restored
inhibition of the Na+/K+-ATPase in cell lysates (Na+/K+-ATPase): complete inhibition
Src activation (Tyr(P)418-Src) (Src and ERK1/2; A4-11 cells): significant reduction
dose-response of Src and ERK1/2 activation (Src and ERK1/2; AAC-19 cells (rat α1 knock-in)): shifted the dose-response curve to the right
Src activation (Tyr(P)418-Src) (Src and ERK1/2; P-11 cells): activated Src
Src activation (Tyr(P)418-Src) (Src and ERK1/2; PY-17 cells): essentially abolished
ERK1/2 phosphorylation (Src and ERK1/2; PY-17 cells, ouabain): failed to detect any ouabain-induced change
physiological concentrations able to activate Src and ERKs (Src and ERKs): 0.1-1 nM
